In patent publication US11965894B2, “Method of diagnosis of drug induced liver injury” (BIOPREDICTIVE, priority 2017, dated 2024):
Each block holds one compound with its values, some of them ahead of it.

Tests used:
[1] = Serum miR-122 by LNA-based relative quantitative PCR in DILI cases; format: in vivo, human
Protocol: Total RNA, including miRNA was extracted from 200 μl of serum, using a commercial column-based system (Exiqon, Denmark) following the manufacturer's instructions. RNA synthetic control templates (Exiqon, Denmark) were introduced to provide controls for the quality of the RNA isolation. Serum levels of miR-122 and nine endogenous miRNAs as potential candidates for reference miRNAs were assayed using the Locked Nucleic Acid (LNA™)-based miRNA relative quantitative PCR with a SYBR® Green detection. cDNA synthesis and real time PCR were performed using the miRCURY LNA™ Universal RT cDNA Synthesis Kit (Exiqon, Denmark) and miRCURY LNA™ Universal RT microRNA PCR system (Exiqon), respectively. Two additional RNA spike-ins were also introduced to provide controls for the cDNA synthesis reaction and the PCR. Quantitative PCR was done on the LightCycler® 480 (Roche Applied Science) according to the manufacturer's instructions. The amplification curves were analyzed using the Roche LC software, both for the determination of cycle threshold (Ct) and for melting curve analysis. Ct values were then processed using the analysis software GenEx® (MultiD Analysis AB). […] Ct values for miR-122 were normalized with Ct value of miR-23a-3p. Levels of serum miR-122 were expressed in relative quantities calculated by the equation 2^−ΔCt.

[2] = FibroTest and ActiTest scores in DILI cases; format: in vivo, human; details: for FibroTest: single followed DILI case
Protocol: The Fibrotest® combines five markers: alpha2-macroglobulin, haptoglobin, apolipoprotein A2, total bilirubin and gamma-glutamyl transpeptidase (GGT), and adjusts with sex and age. […] It is performed in vitro on a biological sample (blood or serum) that has been harvested from a patient.
The ActiTest is calculated using an original combination of six highly concentrated biochemical markers, which are easy to assess. The ActiTest offers a non invasive alternative for measuring necro inflammatory activity in patients with chronic hepatitis C or B. The ActiTest combines alpha2-macroglobulin, haptoglobin, apolipoprotein A1, total bilirubin, GGT, and ALT, parameters adjusted for patient's age and gender.

[3] = healthy volunteers receiving the drug, ref [13]; cited from earlier work
[4] = in vivo
Protocol: Measures of biochemical markers were performed accordingly to the art, and analyses of ActiTest® and FibroTest® were made as described in the art and in WO 2002/016949.
Comparisons between medians (95% confidence interval [CI]) used the Mann-Whitney test with Bonferroni correction, and the Tukey-Kramer multiple comparison procedure for analyses of variance of the three repeated measures. Correlation between test values was estimated using the Pearson coefficient, expressed with a 95% CI; according to the number of comparisons, only a P value <0.01 was considered significant. NCSS-9 software was used.

[5] = DILI cases attributed to the drug, at inclusion

SMILES: CC(=O)Nc1ccc(O)cc1 [APAP, acetaminophen]
- miR-122 compared with MTX cases ([1]; DILI cases, at baseline): significantly lower
- miR-122 (lowest) ([1]; single DILI case with severe malnutrition): −0.8
- ActiTest median [2, 5]: 0.99
- FibroTest ([2]; at 8-12 weeks): 0.53
- FibroTest ([2]; one month later): 0.47
- ApoA1 regulation in ALT responders compared with ALT non-responders [3]: three-fold down-regulation

- ApoA1 compared with normal ranges observed with methotrexate and others [4]: dramatic decrease
- ApoA1 evolution compared with HAPTO [4]: much quicker normalization
- ApoA1 median [4]: 0.27 g/L
- BILI compared with normal ranges observed with methotrexate and others [4]: dramatic increase
- BILI median [4]: 335 µmol/L
- HAPTO compared with normal ranges observed with methotrexate and others [4]: dramatic decrease
- HAPTO median [4]: 0.10 g/L
SMILES: CCOC(=O)Nc1ccc(NCc2ccc(F)cc2)nc1N [flupirtine]
- FibroTest median [2, 5]: 0.99

- GGT dynamics compared with other drugs [4]: no decrease
SMILES: CN(Cc1cnc2nc(N)nc(N)c2n1)c1ccc(C(=O)N[C@@H](CCC(=O)O)C(=O)O)cc1 [methotrexate]
- miR-122 median ([1]; serum, DILI cases attributed to the drug, at inclusion, relative quantities normalized with miR-23a-3p): 7.54
- FibroTest ([2]; 877 days later): 0.52
- FibroTest ([2]; at 8-12 weeks): 0.51

- GGT median [4]: 678 IU/L
SMILES: CCN1CCN(C(=O)N[C@@H](C(=O)N[C@@H]2C(=O)N3[C@@H]2SC(C)(C)[C@@H]3C(=O)O)c2ccccc2)C(=O)C1=O [piperacillin, piperacillin-tazobactam]
